What all share (experiment): NCI anticancer screen, dose series, 48 h
Experiment [1] deals with A549 NSCLC.
The subject of experiment [2] is BT-549 breast.
Experiment [3] concerns HCT-116 colon.
Experiment [4] has as its system HCT-15 colon.
Experiment [5] concerns HOP-92 NSCLC.
Experiment [6] concerns MDA-N.
In experiment [7] the test system is NCI-H460 lung.
The subject of experiment [8] is NCI-H522 lung.
For experiment [9], the system named is SK-OV-3 ovarian.
Experiment [10] concerns SN12C renal.
Experiment [11] deals with SNB-19 CNS.
The test system of experiment [12] is UACC-62 melanoma.
Experiment [13] deals with UO-31 renal.
The subject of experiment [14] is CCRF-CEM leukemia.

“And” between values parts separate entries of the source, which are not always exact repeats. Identical values can stand only once.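 Growth conditions: 96-well plates. Treatment: test compound, 48 hours, 5 concentrations. Analysis: linear interpolation between bracketing concentrations; unreached endpoints set to highest concentration. GI50 = concentration required for 50% inhibition of growth. Definition used: TGI = concentration required for complete inhibition of growth.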

Results on 16 compounds are retold here after PubChem BioAssay (NCI).

Consider `O=C(Nc1ccc(S(=O)(=O)Nc2ncccn2)cc1)c1c2ccccc2nc2ccccc12`, for which the TGI in experiment [1], in [2], in [3], in experiment [4], in [5] and in experiment [6] was above 100 µM throughout. The TGI in experiment [7], in experiment [8], in [9], in [10], in experiment [11] and in experiment [12] was above 100 µM each time. For the same compound, the TGI in experiment [13] was above 100 µM.
Take `O=C1c2c(ccc3c2CCCC3)CC1Cc1ccc2c(c1)CCCC2` (stereo not drawn): the TGI in [1] was above 100 µM; in experiment [2], above 100 µM; in experiment [14] it was 59.7 µM; in experiment [3], above 100 µM; in experiment [4], above 100 µM; in [5], 83.6 µM. For the same compound, the TGI in [6], in [7], in experiment [9], in [10], in [11] and in experiment [12] was above 100 µM in each case. For the same compound, the TGI in experiment [13] is above 100 µM.
For the compound `Cc1ccc(Nc2cn(COCc3ccccc3)c(=O)[nH]c2=O)cc1`, the TGI is above 100 µM in [1]; 82 µM in experiment [2]; above 100 µM in [14]; above 100 µM in experiment [3]; above 100 µM in experiment [4]; above 100 µM in [5]. Moreover, the TGI in experiment [6], in [7], in [10], in experiment [11], in experiment [12] and in experiment [13] was above 100 µM in each case.
In the case of `CCOC(=O)c1ccc(Nc2cnc3ccc(C(F)(F)F)cc3n2)cc1`, the TGI in experiment [1] worked out at 32.3 µM; in experiment [2], 34 µM; in [14], 36.6 µM; in experiment [3], 28 µM; in experiment [4], 35.5 µM; in [5], 23.5 µM. In addition, the TGI in [6] is 44.6 µM; in experiment [7] it was 27.2 µM; in experiment [9] it was above 100 µM; in experiment [10] it was 27.2 µM; in experiment [11], 84.7 µM; in experiment [12], 33.5 µM. The compound also registered a TGI in experiment [13] of 48.6 µM.
Consider `c1cc(C[S+]2CCCC2)oc1C[S+]1CCCC1`, for which the TGI in experiment [1], in experiment [2], in [14], in experiment [3], in [4] and in [6] was above 100 µM throughout. Moreover, the TGI in experiment [7], in experiment [8], in experiment [9], in experiment [10], in [11] and in [12] was above 100 µM throughout. This compound gave a TGI in [13] above 100 µM.
For the compound `COC(=O)C1(C)OC(C)=NC1(C(=O)OC)C(=O)OC` (stereo not drawn), the TGI was above 100 µM in [1]; above 31.6 µM in [2]; above 44 µM in experiment [14]; above 100 µM in experiment [3]; above 100 µM in [4]; above 100 µM in experiment [5]. Also, the TGI in [6], in experiment [7], in experiment [9], in [10], in [11] and in [12] was above 100 µM in each case. This compound returned a TGI in [13] above 100 µM.
Consider `Cc1cc(-c2ccc(C(=O)C(c3ccccc3)(c3ccccc3)c3ccccc3)[nH]2)on1`, for which the TGI in experiment [1] stood at 45.6 µM; in experiment [2] it was 45.8 µM; in experiment [14], 52.9 µM; in experiment [3], 27.9 µM; in [4], 41.6 µM; in [5], 51.8 µM. Moreover, the TGI was 41 µM in [6]; 21.6 µM in experiment [7]; above 100 µM in experiment [9]; 40.6 µM in experiment [10]; 58.4 µM in experiment [11]; 37 µM in [12]. The TGI in [13] was found to be 30.2 µM.
As to `CCN1C(=O)CS/C1=N\NC(=O)CSc1nc2ccccc2c(=O)n1CC`, the TGI in [1], in [2], in [14], in experiment [3], in experiment [4] and in experiment [6] was above 100 µM throughout. For the same compound, the TGI in experiment [7], in experiment [8], in experiment [9], in [10], in [11] and in experiment [12] was above 100 µM throughout. Moreover, the TGI in [13] is above 100 µM.
Consider `COC(=O)CNCC1OC2OC(C)(C)OC2C1N=[N+]=[N-]` (stereo not drawn), for which the TGI in [1], in [2], in experiment [14], in experiment [3], in experiment [4] and in experiment [5] was above 100 µM in each case. In addition, the TGI in experiment [6], in experiment [7], in experiment [9], in experiment [10], in experiment [11] and in experiment [12] was above 100 µM in each case. The compound further showed a TGI in experiment [13] above 100 µM.
As to `N#Cc1c(N2CCOCC2)ncn(-c2ccc(Cl)cc2)c1=O`, the TGI in [1], in [2], in experiment [14], in [3], in experiment [4] and in [5] was above 100 µM each time. For the same compound, the TGI in [6], in [7], in experiment [9], in experiment [10], in experiment [11] and in [12] was above 100 µM throughout. This compound also registered a TGI in [13] above 100 µM.
As for `CC(Cc1ccc2c(c1)OCO2)N(C)C(=O)C1=CCN(C)CC1` (stereo not drawn), the TGI in experiment [1], in experiment [2], in [14], in experiment [3], in experiment [4] and in experiment [6] was above 100 µM throughout. Besides, the TGI in experiment [7], in [8], in experiment [9], in experiment [10], in experiment [11] and in experiment [12] was above 100 µM each time. In [13], this compound yielded a TGI above 100 µM.
Consider `Nc1nc(NCCOCP(=O)(O)O)c(N)c(=O)[nH]1`, for which the TGI in [1], in experiment [2], in [14], in [3], in experiment [4] and in experiment [5] was above 100 µM throughout. The TGI in [6], in experiment [7], in experiment [9], in experiment [10], in [11] and in experiment [12] was above 100 µM throughout. The compound also had a TGI in experiment [13] above 100 µM.
In the case of `CC[C@H](C)[C@H]1NC(=O)[C@@H](NC(=O)[C@@H](CC(C)C)N(C)C(=O)C2CCCN2C(=O)[C@H](C)O)[C@@H](C)OC(=O)[C@H](Cc2ccccc2)N(C)C(=O)[C@@H]2CCCN2C(=O)[C@H](CC(C)C)NC(=O)[C@@H](C)C(=O)[C@H](C(C)C)OC(=O)C[C@@H]1O` (stereo partly drawn), the TGI is below 0.00625 µM in [2]; above 62.5 µM in [14]; 0.00642 µM in experiment [3]; 0.556 µM in [4]; 0.109 µM in experiment [6]; below 0.00625 µM in experiment [7]. Besides, the TGI in experiment [8] was below 0.00625 µM; in [9], 0.101 µM; in experiment [10], above 14.5 µM; in experiment [11], below 0.00625 µM; in experiment [12] it was below 0.00625 µM; in [13] it was below 0.00625 µM.
Consider `CN(C)C(=O)Oc1ccc(C(=S)Nc2ccccc2)cc1Br`, for which the TGI in experiment [1] was above 100 µM; in experiment [2], 68.7 µM; in experiment [14], 48.6 µM; in [3], above 100 µM; in [4], above 100 µM; in [6] it was 57.4 µM. Further, the TGI in [7] is above 100 µM; in [8], 52.4 µM; in experiment [9], above 100 µM; in experiment [11], above 100 µM; in experiment [12] it was 74.4 µM; in experiment [13], above 100 µM.
Consider `O=[N+]([O-])c1ccc2[nH]c(O)c(N=NC(=S)Nc3ccccc3)c2c1`, for which the TGI in [1] was 20.8 µM; in [2], 19.9 µM; in [14] it was 20 µM; in experiment [3] it was 18.6 µM; in [4] it was 17 µM; in [5], 21.7 µM. Besides, the TGI in experiment [6] is 21.7 µM; in [7], 14.5 µM; in [9], 28.2 µM; in [10], 25.8 µM; in experiment [11] it was 27.6 µM; in [12], 29 µM. The compound further came in with a TGI in experiment [13] of 22 µM.
Regarding `CC(Nc1n[nH]c(=O)c2c1nnn2Cc1ccccc1)c1ccccc1` (stereo not drawn), the TGI in experiment [1] is above 100 µM; in experiment [2], above 100 µM; in experiment [14], above 100 µM; in experiment [3] it was above 100 µM; in experiment [4], above 100 µM; in experiment [5] it was > 100 µM and 63.3 µM. In addition, the TGI in experiment [6] was above 100 µM; in experiment [7], above 100 µM; in experiment [10], above 100 µM; in [11], > 100 µM and 66.2 µM; in [13], above 100 µM. In addition, the GI50 in experiment [2] is > 100 µM and 37.5 µM; in experiment [6], > 100 µM and 32.3 µM; in [7], > 100 µM and 31 µM; in [11], > 100 µM and 21.7 µM; in experiment [13], > 100 µM and 23.1 µM.
